One compound from patent US12129254B1, “Pyrimido[6′,1′:2,3]imidazo[4,5-b][1,6]naphthyridine compounds as CK2 inhibitors” (KING FAISAL UNIVERSITY, priority 2023, dated 2024) can be followed below.

The target of assay [1] is T1, recombinant human CK2 (RRββ-holoenzyme) (Homo sapiens, UniProt P68400).
T1 construct: purchased Millipore
In words: CK2 Kinase Assay (radiometric, [γ-33P] ATP). The class given is biochemical. Particulars: final ATP concentration 15 μM, 10 min at 30° C., eight concentrations; read-out: protein kinase CK2 IC50. As for the experimental part:
CK2 Kinase Assay was conducted using the protocol as described in Pierre F. et al; J. Med. Chem. 2011, 54, 635-654. The tested compounds in aqueous solution were added at a volume of 10 μL to a reaction mixture comprising 10 μL of assay dilution buffer (ADB; 20 mM MOPS, pH 7.2, 25 mM β-glycerol phosphate, 5 mM EGTA, 1 mM sodium orthovanadate, and 1 mM dithiothreitol), 10 μL of substrate peptide (RRRDDDSDDD, dissolved in ADB at a concentration of 1 mM), 10 μL of recombinant human CK2 (RRββ-holoenzyme, 25 ng dissolved in ADB; Millipore). Reactions were initiated by the addition of 10 μL of ATP solution (90% 75 mMMgCl2, 75 μM ATP (final ATP concentration: 15 μM) dissolved in ADB; 10% [γ-33P] ATP (stock 1 mCi/100 μL; 3000 Ci/mmol (Perkin-Elmer) and maintained for 10 min at 30° C. The reactions were quenched with 100 μL of 0.75% phosphoric acid and then transferred to and filtered through a phosphor cellulose filter plate (Millipore). After washing each well five times with 0.75% phosphoric acid, the plate was dried under vacuum for 5 min and, following the addition of 15 μL of scintillation fluid to each well, the residual radioactivity was measured using a Wallac luminescence counter. The IC50 values were derived from eight concentrations of test inhibitors.

Another assay concerns H1299 (lung). In words: In vitro cytotoxic activity (MTT) assay, H1299. The class given is cell-based. The following applies: Homo sapiens, NCI-H1299; H1299 (lung) cells, exposed for 96 hours; read-out: IC50, concentration of compound eliciting a 50% inhibition of cell proliferation. As for the experimental part:
(§1) Compounds 1-16 were screened for their in vitro cytotoxic activity utilizing a 3-(4,5-dimethyl-thiazol-2-yl)-2,5-diphenyltetrazolium bromide (MTT) assay against selected cancer human cell lines consisting of PC3 (prostate), HCT116 (colon), A375 (melanoma), H1299 (lung), MIAPaCa-2 (pancreas), HL60 (leukemia), MCF7 (breast), MDA-MB-231 (breast) (T. Mosmann, J. Immunol. Meth., 1983, 65, 55-63). The cells were cultured at 37° C. in RMPI1640 medium supplemented with 10% fetal bovine serum, 50 IU/mL penicillin, and 50 μg/mL streptomycin in a 5% CO2 incubator. All cells were sub-cultured 3 times/week by trypsinisation. Viable cells were seeded and allowed to adhere for 12 h before a test drug was added in 96-well plates at an initial density of 1.0×10^5 cells/mL. Tumour cell lines were separately exposed to various concentrations of the tested compounds followed by incubation at a temperature of 37° C. during 96 h inside a medium of fresh RMPI 1640. Cells were subsequently incubated at 37° C. using MTT at 0.5 mg/mL during 4 h. After removal of supernatant, formazan crystals were dissolved in isopropanol and the optical density was measured at 570 nm. CX-4945 was used as a positive control.

The next assay deals with MIAPaCa-2 (pancreas). In words: In vitro cytotoxic activity (MTT) assay, MIAPaCa-2. The following applies: Homo sapiens, MIA PaCa-2; MIAPaCa-2 (pancreas) cells, exposed for 96 hours; read-out: IC50, concentration of compound eliciting a 50% inhibition of cell proliferation. The class given is cell-based. As for the experimental part:
as §1

Another assay concerns PC3 (prostate). In words: In vitro cytotoxic activity (MTT) assay, PC3. It counts as cell-based. Particulars: Homo sapiens, Prostate cell; PC3 (prostate) cells, exposed for 96 hours; read-out: IC50, concentration of compound eliciting a 50% inhibition of cell proliferation. The procedure:
as §1

The next assay concerns MDA-MB-231 (breast). In words: In vitro cytotoxic activity (MTT) assay, MDA-MB-231. The class given is cell-based. The following applies: Homo sapiens; MDA-MB-231 (breast) cells, exposed for 96 hours; read-out: IC50, concentration of compound eliciting a 50% inhibition of cell proliferation. As for the experimental part:
as §1

The subject of a further assay is MCF7 (breast). In words: In vitro cytotoxic activity (MTT) assay, MCF7. The class given is cell-based. The following applies: Homo sapiens; MCF7 (breast) cells, exposed for 96 hours; read-out: IC50, concentration of compound eliciting a 50% inhibition of cell proliferation. The procedure:
as §1

The subject of a further assay is HCT116 (colon). In words: In vitro cytotoxic activity (MTT) assay, HCT116. It counts as cell-based. The following applies: Homo sapiens, HCT-116; HCT116 (colon) cells, exposed for 96 hours; read-out: IC50, concentration of compound eliciting a 50% inhibition of cell proliferation. The procedure:
as §1

The next assay concerns A375 (melanoma). In words: In vitro cytotoxic activity (MTT) assay, A375. It counts as cell-based. The following applies: Homo sapiens, A-375; A375 (melanoma) cells, exposed for 96 hours; read-out: IC50, concentration of compound eliciting a 50% inhibition of cell proliferation. The procedure:
as §1

In the next assay the test system is HL60 (leukemia). As to the kind of experiment: In vitro cytotoxic activity (MTT) assay, HL60. The class given is cell-based. The following applies: Homo sapiens, HL-60; HL60 (leukemia) cells, exposed for 96 hours; read-out: IC50, concentration of compound eliciting a 50% inhibition of cell proliferation. The procedure: as §1

T1 sequence (P68400 whole entry): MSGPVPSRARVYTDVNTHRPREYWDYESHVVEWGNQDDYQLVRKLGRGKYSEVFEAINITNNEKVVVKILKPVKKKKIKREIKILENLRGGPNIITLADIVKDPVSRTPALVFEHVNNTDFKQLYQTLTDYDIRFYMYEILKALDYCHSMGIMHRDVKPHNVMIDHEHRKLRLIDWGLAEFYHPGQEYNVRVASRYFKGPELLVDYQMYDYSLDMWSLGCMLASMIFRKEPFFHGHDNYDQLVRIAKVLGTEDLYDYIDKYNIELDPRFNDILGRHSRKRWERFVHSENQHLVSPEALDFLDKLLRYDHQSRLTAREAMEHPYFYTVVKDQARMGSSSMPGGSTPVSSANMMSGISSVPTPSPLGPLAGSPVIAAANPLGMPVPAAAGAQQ
T1 sequence (P67870 whole entry partner): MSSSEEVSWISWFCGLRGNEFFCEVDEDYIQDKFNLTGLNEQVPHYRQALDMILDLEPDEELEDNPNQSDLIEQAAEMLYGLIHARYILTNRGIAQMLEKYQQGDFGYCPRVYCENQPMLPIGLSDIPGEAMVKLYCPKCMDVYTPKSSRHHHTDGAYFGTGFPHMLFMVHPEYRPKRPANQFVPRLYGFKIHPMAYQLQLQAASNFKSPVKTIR

`Clc1cccc(Nc2c3cnccc3nc3c2nc2ccncn23)c1` [Compound 1, N-(3-chlorophenyl)pyrimido[6′,1′:2,3]imidazo[4,5-b][1,6]naphthyridin-12-amine]: the IC50 in assay [1] was found to be 138 nM; in the assay with H1299 (lung), 2500 nM; in the assay on MIAPaCa-2 (pancreas), 1400 nM; in the assay with PC3 (prostate), 2200 nM; with MDA-MB-231 (breast), 4700 nM; with MCF7 (breast), 5900 nM. Besides, the IC50 with HCT116 (colon) was 1700 nM; in the assay on A375 (melanoma) it was 3000 nM; in the assay on HL60 (leukemia) it was 3100 nM.
